Active and inactive are the calls of the source. The rule behind the calls is not given here.
How the values were obtained:
Liver [1] = experiment: Drugmetabolism in rat liver microsomes assessed as metabolite formation; type: ADME, Microsome
[2] = target: Tumor necrosis factor receptor superfamily member 5 (Homo sapiens) (UniProt P25942); experiment: Inhibition of CD40 in IL-4/[…] stimulated human PBMC at >10 uM; type: cell-based; settings: dose microM >10
Liver [3] = experiment: Drugmetabolism in mouse liver microsomes assessed as metabolite formation; type: ADME, Microsome
[4] = In vivo inhibition of BTK-dependent B cell activation in C57BL/6 mouse immunized with NP-Ficoll assessed as reduction in anti-NP IgM antibody titer at 10 mg/kg, po BID dosed for 10 days; type: functional; design: scale not given: the % may be the effect or the level left; settings: time 10 day
[5] = target: Mitogen-activated protein kinase kinase kinase 13 (Homo sapiens, UniProt O43283); experiment: Binding affinity to wild-type human full length LZK (M1 to W966 residues) expressed in mammalian expression system by Kinomescan method
[6] = target: Cyclin-dependent kinase-like 2 (Homo sapiens, UniProt Q92772); experiment: Binding affinity to wild-type human partial length CDKL2 (M1 to D327 residues) expressed in bacterial expression system by Kinomescan method
[7] = target: Phosphatidylinositol 4-phosphate 5-kinase type-1 gamma (Homo sapiens, UniProt O60331); experiment: Binding affinity to wild-type human partial length PIP5K1C (M1 to T668 residues) expressed in mammalian expression system by Kinomescan method
[8] = target: Voltage-dependent L-type calcium channel subunit alpha-1C (Homo sapiens, UniProt Q13936); experiment: Inhibition of human Cav1.2; type: toxicity
[9] = Apparent permeability across basolateral to apical side in human Caco2 cells; type: ADME, cell-based; settings: Caco-2
[10] = Drugmetabolism in rat hepatocytes assessed as metabolite formation; type: ADME, cell-based, Hepatocyte
[11] = Kinetic solubility of the compound at pH 1.5 by shake flask method; type: physicochemical; settings: buffer, read-out: Kinetic_solubility
[12] = Apparent permeability across apical to basolateral side in human Caco2 cells; type: ADME, cell-based; settings: Caco-2
[13] = target: Tyrosine-protein kinase Tec (Homo sapiens, UniProt P42680); experiment: Binding affinity to wild-type human partial length TEC (L341 to D620 residues) expressed in bacterial expression system by Kinomescan method
CD63 antigen = CD63 antigen (Homo sapiens, UniProt P08962); experiment: Inhibition of CD63 (unknown origin) assessed as FcepsilonR induced basophil activation
[14] = target: Voltage-gated inwardly rectifying potassium channel KCNH2 (Homo sapiens, UniProt Q12809); experiment: Inhibition of human ERG by patch clamp method; type: toxicity
[15] = In vivo inhibition of BTK-dependent B cell activation in C57BL/6 mouse immunized with NP-Ficoll assessed as reduction in anti-NP IgM antibody titer at 0.03 mg/kg, po BID dosed for 10 days; type: functional; design: scale not given: the % may be the effect or the level left; settings: time 10 day
Cytochrome P450 3A4 = Cytochrome P450 3A4 (Homo sapiens, UniProt P08684); experiment: Inhibition of CYP3A4 in human liver microsomes at 10 to 50 uM; type: ADME; settings: dose 10-50 µM
[16] = In vivo inhibition of BTK-dependent B cell activation in C57BL/6 mouse immunized with NP-Ficoll assessed as reduction in anti-NP IgM antibody titer at 30 mg/kg, po BID dosed for 10 days; type: functional; design: scale not given: the % may be the effect or the level left; settings: time 10 day
[17] = Clearance in Beagle dog assessed as hepatic blood flow at 1 mg/kg, iv; type: ADME, organism-based, Canis lupus familiaris, Liver; settings: in vivo
[18] = Hepatotoxicity in rat primary cells assessed as change in ATP level for 10 days; type: toxicity, cell-based, Hepatocyte; settings: hepatocytes, 240 h, time 10 day
[19] = target: Broad substrate specificity ATP-binding cassette transporter ABCG2 (Homo sapiens, UniProt Q9UNQ0); experiment: Inhibition of BCRP (unknown origin) at >30 uM
Liver [20] = experiment: Drugmetabolism in dog liver microsomes assessed as metabolite formation; type: ADME, Canis lupus familiaris, Microsome
[21] = In vivo inhibition of BTK-dependent B cell activation in C57BL/6 mouse immunized with NP-Ficoll assessed as reduction in anti-NP IgM antibody titer; type: toxicity, organism-based
[22] = Protein binding in monkey plasma assessed as unbound fraction; type: ADME, cell-free, Macaca mulatta; settings: rhesus monkey
Cynomolgus monkey [23] = experiment: In vivo toxicity in cynomolgus monkey assessed as compound related ECG findings at 250 mg/kg after 28 days; type: organism-based, Macaca fascicularis; settings: 672 h, time 28 day
Cytochrome P450 2D6 = Cytochrome P450 2D6 (Homo sapiens, UniProt P10635); experiment: Inhibition of CYP2D6 in human liver microsomes at 10 to 50 uM; type: ADME; settings: dose 10-50 µM
[24] = target: Early activation antigen CD69 (Homo sapiens, UniProt Q07108); experiment: Inhibition of CD69 (unknown origin) assessed as reduction in BCR mediated B cell activation; type: cell-based
Cytochrome P450 1A2 = Cytochrome P450 1A2 (Homo sapiens, UniProt P05177); experiment: Inhibition of CYP1A2 in human liver microsomes at 10 to 50 uM; type: ADME; settings: dose 10-50 µM
[25] = target: Sodium channel protein type 5 subunit alpha (Homo sapiens, UniProt Q14524); experiment: Inhibition of phasic human Nav1.5; type: toxicity
[26] = Dissociation constant, pKa of the compound; type: physicochemical
[27] = Drugmetabolism in mouse hepatocytes assessed as metabolite formation; type: ADME, cell-based, Hepatocyte
[28] = target: Toll-like receptor 9 (Homo sapiens) (UniProt Q9NR96); experiment: Inhibition of TLR9 in CpG-B stimulated human PBMC at >10 uM; type: cell-based; settings: dose microM >10
[29] = Volume of distribution at steady state in Spargue-Dawley rat at 5 mg/kg, po; type: ADME, organism-based; settings: in vivo
Aurora kinase A = Aurora kinase A (Homo sapiens, UniProt O14965); experiment: Binding affinity to wild-type human partial length AURKA (E122 to K401 residues) expressed in mammalian expression system by Kinomescan method
Cynomolgus monkey [30] = experiment: In vivo toxicity in cynomolgus monkey assessed as compound related toxicity at 250 mg/kg after 28 days; type: organism-based, Macaca fascicularis; settings: 672 h, time 28 day
[31] = In vivo inhibition of BTK-dependent B cell activation in C57BL/6 mouse immunized with NP-Ficoll assessed as reduction in anti-NP IgM antibody titer at 0.3 mg/kg, po BID dosed for 10 days; type: functional; design: scale not given: the % may be the effect or the level left; settings: time 10 day
[32] = Kinetic aqueous solubility of the compound in pH 6.8; type: physicochemical; settings: read-out: Kinetic_solubility
Bile salt export pump = Bile salt export pump (Homo sapiens, UniProt O95342); experiment: Inhibition of BSEP (unknown origin) at >30 uM
[33] = In vivo toxicity in Sprague-Dawley rat assessed as compound related pathology findings at 500 mg/kg after 28 days; type: organism-based; settings: 672 h, time 28 day
[34] = Hepatotoxicity in rat primary cells assessed as change in albumin level for 10 days; type: toxicity, cell-based, Hepatocyte; settings: hepatocytes, 240 h, time 10 day
[35] = Drugmetabolism in dog hepatocytes assessed as metabolite formation; type: ADME, cell-based, Canis lupus familiaris, Hepatocyte
[36] = Protein binding in human plasma assessed as unbound fraction; type: ADME, cell-free
[37] = Clearance in cynomolgus monkey assessed as hepatic blood flow at 1 mg/kg, iv; type: ADME, organism-based, Macaca fascicularis, Liver; settings: in vivo
[38] = Drugmetabolism in cynomolgus monkey hepatocytes assessed as metabolite formation; type: ADME, cell-based, Macaca fascicularis, Hepatocyte
[39] = Protein binding in rat plasma assessed as unbound fraction; type: ADME, cell-free
[40] = Hepatotoxicity in rat primary cells assessed as change in GSH level for 10 days; type: toxicity, cell-based, Hepatocyte; settings: hepatocytes, 240 h, time 10 day
[41] = Clearance in Sprague-Dawley rat assessed as hepatic blood flow at 1 mg/kg, iv; type: ADME, organism-based, Liver; settings: in vivo
Cytochrome P450 2C19 = Cytochrome P450 2C19 (Homo sapiens, UniProt P33261); experiment: Inhibition of CYP2C19 in human liver microsomes at 10 to 50 uM; type: ADME; settings: dose 10-50 µM
Cytochrome P450 2C19, sequence (P33261 whole entry): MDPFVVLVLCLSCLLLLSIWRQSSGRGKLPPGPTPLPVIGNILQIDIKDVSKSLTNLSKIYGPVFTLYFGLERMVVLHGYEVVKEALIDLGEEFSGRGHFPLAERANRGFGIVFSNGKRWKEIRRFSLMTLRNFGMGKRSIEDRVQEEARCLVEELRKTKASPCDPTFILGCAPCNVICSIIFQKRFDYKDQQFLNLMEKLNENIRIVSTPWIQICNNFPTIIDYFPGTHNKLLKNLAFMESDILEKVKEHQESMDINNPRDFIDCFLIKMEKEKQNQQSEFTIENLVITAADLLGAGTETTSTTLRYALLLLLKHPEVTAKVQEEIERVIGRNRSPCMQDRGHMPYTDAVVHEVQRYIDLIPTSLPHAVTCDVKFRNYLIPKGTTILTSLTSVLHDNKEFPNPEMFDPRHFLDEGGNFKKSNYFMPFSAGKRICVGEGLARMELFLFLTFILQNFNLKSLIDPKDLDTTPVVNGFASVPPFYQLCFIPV

Tumor necrosis factor receptor superfamily member 5 (Homo sapiens), sequence (P25942 whole entry): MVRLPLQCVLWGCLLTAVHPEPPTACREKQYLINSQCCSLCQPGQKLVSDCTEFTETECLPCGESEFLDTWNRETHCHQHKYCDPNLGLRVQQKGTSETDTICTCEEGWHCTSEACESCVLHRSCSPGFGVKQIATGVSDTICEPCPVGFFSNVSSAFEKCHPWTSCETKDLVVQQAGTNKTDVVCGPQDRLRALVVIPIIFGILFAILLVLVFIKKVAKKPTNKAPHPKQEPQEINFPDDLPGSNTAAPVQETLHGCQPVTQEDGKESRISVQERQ
Broad substrate specificity ATP-binding cassette transporter ABCG2, sequence (Q9UNQ0 whole entry): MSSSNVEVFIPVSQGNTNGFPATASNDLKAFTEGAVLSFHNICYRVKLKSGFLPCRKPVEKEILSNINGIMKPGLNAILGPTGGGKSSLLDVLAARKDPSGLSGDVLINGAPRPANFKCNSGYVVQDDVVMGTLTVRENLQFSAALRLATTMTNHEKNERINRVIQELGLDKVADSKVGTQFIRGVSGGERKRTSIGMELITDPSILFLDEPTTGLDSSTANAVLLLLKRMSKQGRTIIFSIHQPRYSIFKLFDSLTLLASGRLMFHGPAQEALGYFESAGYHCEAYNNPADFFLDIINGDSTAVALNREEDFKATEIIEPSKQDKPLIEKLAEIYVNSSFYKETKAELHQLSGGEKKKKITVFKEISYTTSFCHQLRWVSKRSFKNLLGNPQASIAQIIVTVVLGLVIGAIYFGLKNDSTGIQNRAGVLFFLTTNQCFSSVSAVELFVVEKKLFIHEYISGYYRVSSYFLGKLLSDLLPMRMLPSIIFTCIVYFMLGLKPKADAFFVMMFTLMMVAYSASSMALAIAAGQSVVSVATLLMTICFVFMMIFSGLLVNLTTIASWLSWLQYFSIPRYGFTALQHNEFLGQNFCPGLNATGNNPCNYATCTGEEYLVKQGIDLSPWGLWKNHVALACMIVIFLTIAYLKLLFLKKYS
Cyclin-dependent kinase-like 2, sequence (Q92772 whole entry, the tested form may be a part): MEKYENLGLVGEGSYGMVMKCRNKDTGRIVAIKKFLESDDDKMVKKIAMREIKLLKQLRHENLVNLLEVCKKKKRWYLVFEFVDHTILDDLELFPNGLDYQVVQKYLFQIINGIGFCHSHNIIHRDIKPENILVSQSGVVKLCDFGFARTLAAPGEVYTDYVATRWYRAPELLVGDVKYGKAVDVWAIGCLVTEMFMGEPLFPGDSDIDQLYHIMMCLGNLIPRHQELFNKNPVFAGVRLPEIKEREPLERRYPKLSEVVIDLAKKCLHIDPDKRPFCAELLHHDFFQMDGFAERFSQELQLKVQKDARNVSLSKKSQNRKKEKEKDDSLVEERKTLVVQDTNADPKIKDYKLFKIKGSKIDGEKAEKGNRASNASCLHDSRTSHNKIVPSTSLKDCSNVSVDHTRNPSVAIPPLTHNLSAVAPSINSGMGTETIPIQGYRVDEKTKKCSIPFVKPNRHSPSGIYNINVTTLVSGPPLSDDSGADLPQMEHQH
Voltage-dependent L-type calcium channel subunit alpha-1C, sequence (Q13936 whole entry): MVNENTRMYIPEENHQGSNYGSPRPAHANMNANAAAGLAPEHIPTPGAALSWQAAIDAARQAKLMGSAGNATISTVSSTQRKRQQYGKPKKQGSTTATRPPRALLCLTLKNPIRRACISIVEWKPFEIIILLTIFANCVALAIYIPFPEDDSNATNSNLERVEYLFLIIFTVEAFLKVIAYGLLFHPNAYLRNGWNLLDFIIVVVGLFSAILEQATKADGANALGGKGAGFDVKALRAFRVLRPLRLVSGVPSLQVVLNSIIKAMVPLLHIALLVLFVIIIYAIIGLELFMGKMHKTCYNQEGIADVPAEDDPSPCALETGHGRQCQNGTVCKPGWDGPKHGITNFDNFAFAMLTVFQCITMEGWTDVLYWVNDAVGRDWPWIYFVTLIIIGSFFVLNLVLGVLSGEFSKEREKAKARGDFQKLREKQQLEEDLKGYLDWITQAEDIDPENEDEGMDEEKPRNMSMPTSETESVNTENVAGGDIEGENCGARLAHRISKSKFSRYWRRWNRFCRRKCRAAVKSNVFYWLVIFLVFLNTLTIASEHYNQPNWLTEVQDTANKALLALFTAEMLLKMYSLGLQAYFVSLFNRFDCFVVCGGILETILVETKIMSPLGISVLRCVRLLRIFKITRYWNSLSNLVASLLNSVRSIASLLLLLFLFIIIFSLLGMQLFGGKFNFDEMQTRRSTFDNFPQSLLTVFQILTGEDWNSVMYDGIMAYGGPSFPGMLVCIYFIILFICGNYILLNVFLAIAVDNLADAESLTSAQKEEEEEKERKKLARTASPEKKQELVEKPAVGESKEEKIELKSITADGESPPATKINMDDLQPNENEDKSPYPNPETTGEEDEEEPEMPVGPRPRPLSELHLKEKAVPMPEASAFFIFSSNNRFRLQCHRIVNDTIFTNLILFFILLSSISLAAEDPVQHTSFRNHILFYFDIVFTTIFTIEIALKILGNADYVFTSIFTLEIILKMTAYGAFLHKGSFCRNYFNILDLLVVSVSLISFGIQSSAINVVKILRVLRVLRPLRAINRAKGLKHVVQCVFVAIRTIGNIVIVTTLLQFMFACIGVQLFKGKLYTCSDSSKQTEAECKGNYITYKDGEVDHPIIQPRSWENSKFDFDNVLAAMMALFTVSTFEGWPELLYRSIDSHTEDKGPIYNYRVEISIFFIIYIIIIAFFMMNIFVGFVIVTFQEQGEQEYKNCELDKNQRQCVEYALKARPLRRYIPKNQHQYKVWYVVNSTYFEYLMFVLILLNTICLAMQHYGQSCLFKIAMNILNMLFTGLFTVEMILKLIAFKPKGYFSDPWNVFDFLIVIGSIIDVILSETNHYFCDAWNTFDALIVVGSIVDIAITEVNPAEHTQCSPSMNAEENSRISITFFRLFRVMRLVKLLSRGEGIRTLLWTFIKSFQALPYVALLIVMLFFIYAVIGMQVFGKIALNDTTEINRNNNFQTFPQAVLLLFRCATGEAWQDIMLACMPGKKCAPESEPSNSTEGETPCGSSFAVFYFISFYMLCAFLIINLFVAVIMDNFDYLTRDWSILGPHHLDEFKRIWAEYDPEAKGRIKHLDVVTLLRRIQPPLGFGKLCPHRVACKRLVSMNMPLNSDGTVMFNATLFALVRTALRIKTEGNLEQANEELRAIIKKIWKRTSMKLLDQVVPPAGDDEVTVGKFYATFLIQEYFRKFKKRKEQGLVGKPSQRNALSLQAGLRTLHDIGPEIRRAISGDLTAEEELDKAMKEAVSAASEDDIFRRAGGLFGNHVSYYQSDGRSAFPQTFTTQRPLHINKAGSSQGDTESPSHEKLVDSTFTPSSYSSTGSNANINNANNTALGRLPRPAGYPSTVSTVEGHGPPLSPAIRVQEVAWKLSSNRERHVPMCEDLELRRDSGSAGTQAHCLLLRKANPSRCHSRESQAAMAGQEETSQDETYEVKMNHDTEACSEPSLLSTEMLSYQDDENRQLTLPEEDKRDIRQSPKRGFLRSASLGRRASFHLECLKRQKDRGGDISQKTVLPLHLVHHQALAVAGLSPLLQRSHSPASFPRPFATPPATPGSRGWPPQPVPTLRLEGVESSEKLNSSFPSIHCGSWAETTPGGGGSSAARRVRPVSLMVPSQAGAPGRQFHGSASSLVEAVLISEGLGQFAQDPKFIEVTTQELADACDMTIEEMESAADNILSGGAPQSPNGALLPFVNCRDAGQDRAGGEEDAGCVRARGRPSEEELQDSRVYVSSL
Aurora kinase A, sequence (O14965 whole entry, the tested form may be a part): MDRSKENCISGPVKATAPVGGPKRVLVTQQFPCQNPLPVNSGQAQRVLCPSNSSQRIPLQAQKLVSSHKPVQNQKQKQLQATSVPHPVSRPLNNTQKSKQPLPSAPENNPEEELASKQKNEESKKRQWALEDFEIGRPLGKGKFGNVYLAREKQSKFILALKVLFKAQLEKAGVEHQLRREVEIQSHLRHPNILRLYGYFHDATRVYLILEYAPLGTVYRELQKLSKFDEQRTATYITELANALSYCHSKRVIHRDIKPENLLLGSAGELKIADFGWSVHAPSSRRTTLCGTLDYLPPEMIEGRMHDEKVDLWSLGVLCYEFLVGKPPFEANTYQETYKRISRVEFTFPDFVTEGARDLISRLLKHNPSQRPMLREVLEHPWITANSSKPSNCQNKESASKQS
Early activation antigen CD69, sequence (Q07108 whole entry): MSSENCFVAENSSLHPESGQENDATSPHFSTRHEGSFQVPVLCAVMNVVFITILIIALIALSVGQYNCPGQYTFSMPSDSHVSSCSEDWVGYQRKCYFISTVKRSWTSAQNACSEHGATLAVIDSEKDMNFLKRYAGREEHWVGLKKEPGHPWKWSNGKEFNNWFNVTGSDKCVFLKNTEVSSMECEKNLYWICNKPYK
CD63 antigen, sequence (P08962 whole entry): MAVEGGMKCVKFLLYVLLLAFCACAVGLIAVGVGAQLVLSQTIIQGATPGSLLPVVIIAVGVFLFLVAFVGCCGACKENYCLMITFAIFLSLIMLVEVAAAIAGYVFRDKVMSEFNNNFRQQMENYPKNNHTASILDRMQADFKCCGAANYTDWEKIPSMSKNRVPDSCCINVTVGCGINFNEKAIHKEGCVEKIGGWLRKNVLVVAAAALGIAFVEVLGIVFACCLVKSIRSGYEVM

Drug metabolism (Liver [1]): Metabolite_Notdetected | Drug metabolism (Liver [3]): Metabolite_Notdetected | Kd [5]: > 3000 nM | Kd [6]: 240 nM | Kd [7]: 420 nM | Papp B→A [9]: 37.6 ×10⁻⁶ cm/s | Drug metabolism [10]: Metabolite_Notdetected | solubility kinetic [11]: > 50 µg/mL | Papp A→B [12]: 1.78 ×10⁻⁶ cm/s | Kd [13]: 240 nM | IC50 (CD63 antigen): 82 nM | inhibition (INH) (Cytochrome P450 3A4): Not Active | QH [17]: 33% | inhibition (INH) [19]: Not Active | Drug metabolism (Liver [20]): Metabolite_Notdetected | fraction unbound [22]: 0.19 | inhibition (INH) (Cytochrome P450 2D6): Not Active | IC50 [24]: 71 nM | inhibition (INH) (Cytochrome P450 1A2): Not Active | pKa [26]: 2.8 | Drug metabolism [27]: Metabolite_Notdetected | inhibition [28]: inactive | Vdss [29]: 0.4 L/kg | Kd (Aurora kinase A): 660 nM | solubility kinetic [32]: > 50 µg/mL | Drug metabolism [35]: Metabolite_Notdetected | fraction unbound [36]: 0.26 | QH [37]: 44% | Drug metabolism [38]: Metabolite_Notdetected | fraction unbound [39]: 0.1 | QH [41]: 22% | inhibition (INH) (Cytochrome P450 2C19): Not Active
SMILES: Cn1cc(Nc2nccc(-c3ccc4c(c3)CN(C3COC3)CC[C@H]4NC(=O)c3cn(C(C)(C)C)nn3)n2)cn1 [BIIB-091]
inhibition [2]: inactive | Activity [4]: 77% | IC50 [8]: > 25000 nM | IC50 [14]: > 25000 nM | Activity [15]: 34% | Activity [16]: 88% | Activity [18]: Non-Toxic | ED50 [21]: 1.95 mg/kg | Activity (Cynomolgus monkey [23]): Non-Toxic | IC50 [25]: > 25000 nM | Activity (Cynomolgus monkey [30]): Non-Toxic | Activity [31]: 59% | inhibition (INH) (Bile salt export pump): Not Active | Activity [33]: Non-Toxic | Activity [34]: Non-Toxic | Activity [40]: Non-Toxic
